Data from ChEMBL document CHEMBL1201862, “PubChem BioAssay data set” (2004).
Active and inactive are the calls of the source.

How the values were obtained:
[1] = toxicity toward HepG2 liver cells – cell-based, plate reader, cherry-pick, antagonist series, cytotoxicity control, dose response (AID 743416); format: functional
[2] = blockers of bursicon-stimulated LGR2 cAMP reporter – cell-based, HEK293, CRE-luciferase reporter, cherry pick, set 2, dose response (AID 743343); format: functional;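 also: transfected cells were stimulated with diluted bursicon conditioned medium after compound addition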
[3] = biological target: T1, Replicative DNA helicase DnaB (Mycobacterium tuberculosis, UniProt P9WMR3); test: DnaB intein splicing inhibitors, dose response, biochemical, cell-free fluorescence (AID 449749); format: functional
T1 sequence (P9WMR3 whole entry): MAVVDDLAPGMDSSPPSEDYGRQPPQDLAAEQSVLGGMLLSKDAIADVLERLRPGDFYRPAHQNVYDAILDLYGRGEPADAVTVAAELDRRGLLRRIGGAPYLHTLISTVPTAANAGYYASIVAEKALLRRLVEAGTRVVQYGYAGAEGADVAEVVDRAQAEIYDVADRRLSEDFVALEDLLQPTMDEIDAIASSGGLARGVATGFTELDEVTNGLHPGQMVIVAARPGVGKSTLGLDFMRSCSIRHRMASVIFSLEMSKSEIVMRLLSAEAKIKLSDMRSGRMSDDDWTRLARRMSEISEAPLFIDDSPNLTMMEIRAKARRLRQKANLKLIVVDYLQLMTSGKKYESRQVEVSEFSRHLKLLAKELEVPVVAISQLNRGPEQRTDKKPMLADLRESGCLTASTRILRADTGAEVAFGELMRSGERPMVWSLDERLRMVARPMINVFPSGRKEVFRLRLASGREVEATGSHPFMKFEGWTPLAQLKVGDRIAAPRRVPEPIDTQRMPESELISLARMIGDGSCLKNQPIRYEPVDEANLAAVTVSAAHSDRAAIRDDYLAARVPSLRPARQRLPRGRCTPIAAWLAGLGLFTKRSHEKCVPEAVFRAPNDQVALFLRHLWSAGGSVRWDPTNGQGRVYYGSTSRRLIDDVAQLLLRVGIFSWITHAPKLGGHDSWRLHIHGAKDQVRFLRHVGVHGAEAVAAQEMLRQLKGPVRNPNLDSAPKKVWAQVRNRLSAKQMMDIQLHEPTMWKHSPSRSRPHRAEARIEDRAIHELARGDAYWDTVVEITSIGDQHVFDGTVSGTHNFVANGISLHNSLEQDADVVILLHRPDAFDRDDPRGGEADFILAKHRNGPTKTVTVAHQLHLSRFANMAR

SUMO-activating enzyme [4] = biological target: T2, SUMO-activating enzyme (Homo sapiens, UniProt Q9UBT2); test: blockers of UBC9-mediated SUMO conjugation – biochemical, AlphaScreen, SUMOylation inhibitor project, confirmation (AID 2018); format: functional
[5] = HEK-293T cell viability reduction – luminescence, B-cell screen hits, cytotoxicity control for BCR NF-kB inhibitor project, dose response (AID 489021); format: functional, cell-based;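 also: HEK-293T cells carrying an NF-kB luciferase reporter; cells exposed to compound for about 14 hours before viability readout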
[6] = viability loss in HEK293 cells – cell-based, plate reader, cherry-picked samples, cytotoxicity control, dose response (AID 743446); format: functional
SUMO-activating enzyme [7] = biological target: T2, SUMO-activating enzyme; test: blockers of SAE1/SAE2–UBC9 SUMO transfer – biochemical, HTRF, uHTS, primary screen (AID 2006); format: protein-complex assay
INS1 = test: INS-1E survival protection against cytokine death – cell-based, luminescence, retest, dose response (AID 449756); format: functional; conditions: Rattus norvegicus;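 also: cell death triggered by IL-1 beta plus TNF-alpha plus IFN-gamma mixture; protective hits raise ATP signal compared with cytokine alone wells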
[8] = blockade of melanocortin 4 receptor signaling – cell-based, plate reader, cherry pick, counter-screen for LGR2 antagonist project, dose response (AID 743444); format: functional;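 also: transfected HEK 293 cells stimulated with alpha-MSH peptide; potency of inhibitors of the alpha-MSH evoked signal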
[9] = biological target: Heat shock protein HSP 90-alpha (Homo sapiens, UniProt P07900); format: functional, organism-based
[10] = biological target: T3, High affinity choline transporter 1 (Homo sapiens, UniProt Q9GZV3); test: human choline transporter blockers, potency – cell-based, 5-point CRC, membrane potential dye, dose response (AID 504840); format: functional
T3 sequence (Q9GZV3 whole entry): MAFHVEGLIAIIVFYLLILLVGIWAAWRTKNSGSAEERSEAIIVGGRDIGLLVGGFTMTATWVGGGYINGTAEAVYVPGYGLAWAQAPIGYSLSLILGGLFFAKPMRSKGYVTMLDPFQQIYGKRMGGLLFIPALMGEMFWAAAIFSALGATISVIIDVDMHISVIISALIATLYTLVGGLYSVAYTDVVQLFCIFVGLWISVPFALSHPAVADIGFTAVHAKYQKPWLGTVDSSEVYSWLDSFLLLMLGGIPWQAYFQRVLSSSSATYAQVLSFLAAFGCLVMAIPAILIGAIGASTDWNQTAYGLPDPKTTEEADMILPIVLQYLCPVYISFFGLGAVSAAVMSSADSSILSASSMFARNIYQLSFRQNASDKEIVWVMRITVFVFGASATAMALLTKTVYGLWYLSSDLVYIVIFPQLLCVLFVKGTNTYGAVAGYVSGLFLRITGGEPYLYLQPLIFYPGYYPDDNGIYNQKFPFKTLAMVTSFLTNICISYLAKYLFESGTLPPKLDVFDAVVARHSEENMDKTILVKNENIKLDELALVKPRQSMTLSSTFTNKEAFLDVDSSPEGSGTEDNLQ

[11] = decrease of insulin promoter-GFP reporter – imaging, high-content screening, mouse beta cells (AID 1628); format: functional; conditions: MIN6
[12] = MIN6 cell viability loss – mouse insulinoma, cytotoxicity control, dose response (AID 2122); format: functional;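 also: confirmatory high-throughput counterscreen run to flag cytotoxic compounds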
Protein RecA = biological target: T4, Protein RecA (Mycobacterium tuberculosis, UniProt P9WHJ3); test: Fluorescence Cell-Free Homogeneous Dose Retest to Identify Inhibitors of RecA-Intein Splicing Activity. [Related pubchem assays (depositor defined):AID2097, AID2223, AID489010, AID492950]; format: functional
T4 sequence (P9WHJ3 whole entry): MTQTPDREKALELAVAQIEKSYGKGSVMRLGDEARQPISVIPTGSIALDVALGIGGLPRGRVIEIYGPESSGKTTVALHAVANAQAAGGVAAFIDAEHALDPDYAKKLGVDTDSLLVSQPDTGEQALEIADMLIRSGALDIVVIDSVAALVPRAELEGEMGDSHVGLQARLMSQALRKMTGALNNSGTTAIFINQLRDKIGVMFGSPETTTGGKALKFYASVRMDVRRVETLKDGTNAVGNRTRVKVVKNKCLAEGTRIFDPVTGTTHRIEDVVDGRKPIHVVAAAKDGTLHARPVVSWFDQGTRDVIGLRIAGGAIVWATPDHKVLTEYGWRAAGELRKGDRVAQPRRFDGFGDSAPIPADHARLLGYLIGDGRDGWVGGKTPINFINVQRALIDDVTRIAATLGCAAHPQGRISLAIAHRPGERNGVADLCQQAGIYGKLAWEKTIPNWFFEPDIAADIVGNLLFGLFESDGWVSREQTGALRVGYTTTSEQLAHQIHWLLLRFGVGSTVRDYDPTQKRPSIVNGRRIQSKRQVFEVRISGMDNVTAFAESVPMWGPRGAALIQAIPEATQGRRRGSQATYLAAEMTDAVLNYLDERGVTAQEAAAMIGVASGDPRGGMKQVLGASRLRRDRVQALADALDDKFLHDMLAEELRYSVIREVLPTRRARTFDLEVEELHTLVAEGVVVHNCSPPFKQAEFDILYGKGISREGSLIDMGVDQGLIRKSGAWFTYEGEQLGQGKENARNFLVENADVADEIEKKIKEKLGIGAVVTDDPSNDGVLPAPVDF

[13] = A549 cell cytotoxicity, dose response, cytotoxicity control, plate reader, cherry-pick, antagonist series (AID 743412); format: functional, cell-based
CAAX prenyl protease 2 = CAAX prenyl protease 2 (Saccharomyces cerevisiae S288c, UniProt Q03530); format: biochemical
CAAX prenyl protease 1 = CAAX prenyl protease 1 (Saccharomyces cerevisiae S288c, UniProt P47154); test: yeast CAAX protease Ste24 inhibition – biochemical, S. cerevisiae, plate reader, cherry-pick, dose response (AID 488815)
Tumor necrosis factor = Tumor necrosis factor (Homo sapiens, UniProt P01375); test: analog potency on TNFa NF-kB signaling – cell-based, revised, SAR follow-up (AID 2337); format: functional
HEK293 = test: cells; conditions: Homo sapiens;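 also: cells exposed to compound for 14 hours overnight before viability readout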
[14] = biological target: Nucleotide-binding oligomerization domain-containing protein 2 (Homo sapiens, UniProt Q9HC29); test: PubChem AID 2334; format: functional
[15] = biological target: Nucleotide-binding oligomerization domain-containing protein 1 (Homo sapiens, UniProt Q9Y239); test: blockers of NOD1 pathway activity – revised, SAR follow-up (AID 2333); format: functional
Chain of Nucleotide-binding oligomerization domain-containing protein 1 (Q9Y239 whole entry, the tested form may be a part): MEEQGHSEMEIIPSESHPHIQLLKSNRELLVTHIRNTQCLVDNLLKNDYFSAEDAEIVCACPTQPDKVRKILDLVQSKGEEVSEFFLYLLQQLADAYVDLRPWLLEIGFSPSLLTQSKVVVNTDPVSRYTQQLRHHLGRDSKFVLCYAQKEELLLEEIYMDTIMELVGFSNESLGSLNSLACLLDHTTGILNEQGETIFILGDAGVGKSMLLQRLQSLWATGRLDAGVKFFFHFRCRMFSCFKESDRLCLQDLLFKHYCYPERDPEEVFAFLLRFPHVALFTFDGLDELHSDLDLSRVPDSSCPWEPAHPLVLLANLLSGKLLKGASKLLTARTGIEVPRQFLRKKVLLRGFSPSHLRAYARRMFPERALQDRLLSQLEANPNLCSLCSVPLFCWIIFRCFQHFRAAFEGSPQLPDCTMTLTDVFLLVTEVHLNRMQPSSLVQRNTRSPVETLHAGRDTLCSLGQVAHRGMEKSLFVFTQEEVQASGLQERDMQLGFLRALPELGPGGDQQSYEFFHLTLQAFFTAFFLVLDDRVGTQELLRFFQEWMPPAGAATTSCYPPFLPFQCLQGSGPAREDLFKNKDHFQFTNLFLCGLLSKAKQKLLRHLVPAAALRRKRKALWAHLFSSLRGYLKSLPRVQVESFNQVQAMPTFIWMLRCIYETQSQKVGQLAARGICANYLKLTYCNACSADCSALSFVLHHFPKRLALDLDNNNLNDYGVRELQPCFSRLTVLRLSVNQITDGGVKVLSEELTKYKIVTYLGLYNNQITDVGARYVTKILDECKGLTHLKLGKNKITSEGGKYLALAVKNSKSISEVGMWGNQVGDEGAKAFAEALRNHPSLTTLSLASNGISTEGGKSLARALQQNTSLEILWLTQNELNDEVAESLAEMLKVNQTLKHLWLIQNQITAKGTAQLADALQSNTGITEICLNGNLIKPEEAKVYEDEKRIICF

T2 sequence (Q9UBE0 whole entry): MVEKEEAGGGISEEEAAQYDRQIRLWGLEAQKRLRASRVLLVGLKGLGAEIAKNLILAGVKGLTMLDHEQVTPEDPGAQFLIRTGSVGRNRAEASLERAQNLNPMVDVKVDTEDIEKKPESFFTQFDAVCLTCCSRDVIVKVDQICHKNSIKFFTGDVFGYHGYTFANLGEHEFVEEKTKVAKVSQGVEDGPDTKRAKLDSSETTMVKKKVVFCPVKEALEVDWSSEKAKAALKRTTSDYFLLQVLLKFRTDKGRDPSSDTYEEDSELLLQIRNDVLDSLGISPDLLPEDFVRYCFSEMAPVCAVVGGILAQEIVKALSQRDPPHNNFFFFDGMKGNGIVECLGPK
T2 sequence (Q9UBT2 whole entry): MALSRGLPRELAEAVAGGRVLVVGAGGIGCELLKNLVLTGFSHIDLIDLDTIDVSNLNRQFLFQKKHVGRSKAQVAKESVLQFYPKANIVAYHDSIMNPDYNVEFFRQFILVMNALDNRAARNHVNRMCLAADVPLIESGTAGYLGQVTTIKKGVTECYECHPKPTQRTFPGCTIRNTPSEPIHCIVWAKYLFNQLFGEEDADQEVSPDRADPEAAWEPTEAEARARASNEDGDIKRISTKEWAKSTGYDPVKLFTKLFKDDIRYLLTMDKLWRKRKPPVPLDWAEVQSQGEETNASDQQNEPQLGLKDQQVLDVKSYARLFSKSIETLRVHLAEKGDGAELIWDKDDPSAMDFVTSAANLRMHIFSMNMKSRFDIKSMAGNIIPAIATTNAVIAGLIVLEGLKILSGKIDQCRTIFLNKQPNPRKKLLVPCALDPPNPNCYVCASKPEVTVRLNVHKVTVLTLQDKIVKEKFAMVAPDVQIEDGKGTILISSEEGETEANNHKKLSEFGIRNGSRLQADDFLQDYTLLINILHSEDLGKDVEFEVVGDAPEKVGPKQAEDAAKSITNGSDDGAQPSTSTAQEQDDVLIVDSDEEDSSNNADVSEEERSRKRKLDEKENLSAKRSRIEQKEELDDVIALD
Chain of Tumor necrosis factor (P01375 whole entry): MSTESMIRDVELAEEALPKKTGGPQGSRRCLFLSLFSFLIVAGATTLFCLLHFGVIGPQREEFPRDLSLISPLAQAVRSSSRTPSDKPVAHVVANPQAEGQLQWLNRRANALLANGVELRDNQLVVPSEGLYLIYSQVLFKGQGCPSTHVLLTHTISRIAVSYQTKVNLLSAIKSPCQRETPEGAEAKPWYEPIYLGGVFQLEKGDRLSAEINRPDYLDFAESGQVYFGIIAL
Chain of CAAX prenyl protease 2 (Q03530 whole entry): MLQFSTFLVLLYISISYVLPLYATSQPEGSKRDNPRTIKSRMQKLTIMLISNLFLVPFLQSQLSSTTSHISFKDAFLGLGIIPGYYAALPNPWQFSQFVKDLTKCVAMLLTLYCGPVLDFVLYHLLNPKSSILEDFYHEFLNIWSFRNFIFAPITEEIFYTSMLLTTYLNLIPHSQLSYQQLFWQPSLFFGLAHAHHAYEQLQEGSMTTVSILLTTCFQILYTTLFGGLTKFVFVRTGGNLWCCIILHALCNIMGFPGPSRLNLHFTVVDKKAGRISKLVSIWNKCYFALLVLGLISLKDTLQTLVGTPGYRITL
Chain of CAAX prenyl protease 1 (P47154 whole entry): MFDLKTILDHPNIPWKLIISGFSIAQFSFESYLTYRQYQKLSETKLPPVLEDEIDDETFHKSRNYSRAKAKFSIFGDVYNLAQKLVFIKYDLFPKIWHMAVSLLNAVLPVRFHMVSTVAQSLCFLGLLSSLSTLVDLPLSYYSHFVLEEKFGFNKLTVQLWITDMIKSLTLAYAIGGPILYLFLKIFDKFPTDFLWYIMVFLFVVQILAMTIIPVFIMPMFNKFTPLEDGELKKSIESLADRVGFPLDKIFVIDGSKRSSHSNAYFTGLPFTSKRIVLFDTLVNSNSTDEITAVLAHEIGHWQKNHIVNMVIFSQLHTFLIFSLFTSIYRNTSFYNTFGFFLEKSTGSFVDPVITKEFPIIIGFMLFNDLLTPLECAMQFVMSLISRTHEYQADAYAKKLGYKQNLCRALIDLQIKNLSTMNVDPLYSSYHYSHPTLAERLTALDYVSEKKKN
Chain of Nucleotide-binding oligomerization domain-containing protein 2 (Q9HC29 whole entry, the tested form may be a part): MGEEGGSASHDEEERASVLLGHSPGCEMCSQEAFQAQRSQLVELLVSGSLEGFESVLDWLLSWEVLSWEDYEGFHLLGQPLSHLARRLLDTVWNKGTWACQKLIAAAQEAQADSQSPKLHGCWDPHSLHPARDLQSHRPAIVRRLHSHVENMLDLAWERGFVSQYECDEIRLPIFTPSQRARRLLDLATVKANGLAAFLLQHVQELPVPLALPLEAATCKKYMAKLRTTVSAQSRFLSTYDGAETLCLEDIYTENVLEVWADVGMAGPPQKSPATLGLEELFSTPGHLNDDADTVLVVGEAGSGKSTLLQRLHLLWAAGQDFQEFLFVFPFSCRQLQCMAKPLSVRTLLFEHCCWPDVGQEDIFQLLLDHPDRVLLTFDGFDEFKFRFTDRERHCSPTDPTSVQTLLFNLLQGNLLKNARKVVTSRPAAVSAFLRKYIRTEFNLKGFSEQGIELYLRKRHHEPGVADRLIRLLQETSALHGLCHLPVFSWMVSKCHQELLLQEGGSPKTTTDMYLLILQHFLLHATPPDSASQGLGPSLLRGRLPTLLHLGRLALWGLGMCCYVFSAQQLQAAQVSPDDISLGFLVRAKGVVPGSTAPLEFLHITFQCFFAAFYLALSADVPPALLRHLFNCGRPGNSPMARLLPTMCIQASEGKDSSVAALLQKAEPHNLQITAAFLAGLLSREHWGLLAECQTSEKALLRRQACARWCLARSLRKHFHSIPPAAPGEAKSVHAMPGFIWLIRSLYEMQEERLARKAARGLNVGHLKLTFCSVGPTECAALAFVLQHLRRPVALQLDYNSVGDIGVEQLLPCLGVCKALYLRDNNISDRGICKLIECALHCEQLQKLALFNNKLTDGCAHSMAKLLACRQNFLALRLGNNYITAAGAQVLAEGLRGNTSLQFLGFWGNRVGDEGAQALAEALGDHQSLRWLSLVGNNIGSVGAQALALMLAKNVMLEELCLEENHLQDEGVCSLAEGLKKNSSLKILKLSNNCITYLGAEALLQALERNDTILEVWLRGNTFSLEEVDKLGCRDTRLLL

With `O=C(Nc1nc(-c2ccccc2)cs1)c1ccccc1NS(=O)(=O)c1ccc(F)cc1` the AC50 [1] was 11.2 µM (active), the AC50 [2] was 28.6 µM (active) and the AC50 [3] was 2.17 µM (active). The IC50 (SUMO-activating enzyme [4]) was 7.97 µM (active), the IC50 [5] was 14.8 µM (active) and the AC50 [6] was 3.39 µM (active). For the same molecule, the IC50 (SUMO-activating enzyme [7]) was 18.4 µM (active), the AC50 (INS1) was 3.41 µM (active) and the AC50 [8] was 6.01 µM (active). The AC50 [9] was 2.91 µM (active), the IC50 [10] was 13.8 µM (active) and the IC50 [11] was 3.02 µM (active). For the same molecule, the IC50 [12] was 2.18 µM (active), the EC50 (Protein RecA) was 8.85 µM (active) and the AC50 [13] was 14.6 µM (active).

With `COc1ccc(N2CCN(C(=O)c3cc(-c4cccs4)nc4ccccc34)CC2)cc1` the AC50 (CAAX prenyl protease 2) was 4.06 µM (active) and the AC50 (CAAX prenyl protease 1) was 47.6 µM (active).

With `Cc1cc(C(=O)NC2CCCc3c2cnn3-c2ccccc2F)[nH]n1` (stereo unspecified) the IC50 (Tumor necrosis factor) was > 20 µM (inactive), the IC50 (HEK293) was > 20 µM (inactive) and the IC50 [14] was > 20 µM (inactive). For the same molecule, the IC50 [15] was > 20 µM (inactive).
